Reference: US9546151B2, “VMAT inhibitory compounds” (Oregon Health & Science University, priority 2014, dated 2017)

What was measured:
VMAT2 [1] = molecular target: T1, VMAT2 (Homo sapiens, UniProt Q05940); details: background statements; cited from earlier work
[2] = molecular target: T2, recombinant human norepinephrine transporter (hNET) (Homo sapiens, UniProt P23975); assay: [125I]RTI-55 binding, HEK-hNET; details: used in Cheng-Prusoff equation
T2 construct: expressed in transfected cells; host or cells: HEK cells
T2 sequence (P23975 whole entry): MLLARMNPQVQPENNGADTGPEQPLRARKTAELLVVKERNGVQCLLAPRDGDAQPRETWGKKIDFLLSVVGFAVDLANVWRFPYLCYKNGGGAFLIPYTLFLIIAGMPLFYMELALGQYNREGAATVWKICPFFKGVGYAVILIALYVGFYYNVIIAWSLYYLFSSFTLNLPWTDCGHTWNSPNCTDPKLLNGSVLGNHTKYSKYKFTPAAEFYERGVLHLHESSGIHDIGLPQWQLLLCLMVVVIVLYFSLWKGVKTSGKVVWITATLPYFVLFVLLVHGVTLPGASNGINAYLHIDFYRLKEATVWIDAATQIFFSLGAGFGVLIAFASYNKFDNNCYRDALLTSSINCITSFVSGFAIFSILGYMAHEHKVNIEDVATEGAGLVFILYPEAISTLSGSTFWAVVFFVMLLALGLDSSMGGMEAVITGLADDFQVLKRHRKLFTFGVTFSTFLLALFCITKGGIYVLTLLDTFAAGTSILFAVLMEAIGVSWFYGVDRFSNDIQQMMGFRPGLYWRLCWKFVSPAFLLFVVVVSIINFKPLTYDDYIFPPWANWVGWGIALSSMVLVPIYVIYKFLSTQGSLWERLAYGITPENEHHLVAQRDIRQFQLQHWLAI
Experimental: (§1) Standard methods of assessing [^3H]neurotransmitter uptake and [^125I]RTI-55 binding using HEK cell lines are described in Eshleman et al, J Pharmacol Exp Therap 289, 877-885 (1999), which is incorporated by reference herein and were as follows:
(§2) Compounds were weighed and dissolved in DMSO to make a stock solution of 10 mM. An initial dilution to 50 μM in assay buffer or water for binding, or to 1 mM in assay buffer or water for uptake, was made. Subsequent dilutions were made with assay buffer supplemented with DMSO, maintaining a final concentration of 0.1% DMSO. Pipetting was conducted using a Biomek 2000 robotic workstation.
(§3) Cells were grown to 100% confluence on 150 mm diameter tissue culture dishes and served as the tissue source. Cell membranes were prepared as follows. Medium was poured off the plate, and the plate was washed with 10 ml of calcium- and magnesium-free phosphate-buffered saline. Lysis buffer (10 ml; 2 mM HEPES with 1 mM EDTA) was added. After 10 min, lysed cells were scraped from plates, transferred into centrifuge tubes, and centrifuged at 30,000×g for 20 min. The supernatant fluid was removed, and the pellet was resuspended in 12-32 ml of sucrose (0.32 M) using a Polytron at setting 7 for 10 sec. The resuspension volume depended on the density of binding sites within a cell line and was chosen to reflect binding of 10% or less of the total radioactivity. […]

[3] = molecular target: T3, recombinant human serotonin transporter (hSERT) (Homo sapiens, UniProt P31645); assay: [125I]RTI-55 binding, HEK-hSERT; details: used in Cheng-Prusoff equation
T3 construct: expressed in transfected cells; host or cells: HEK cells
T3 sequence (P31645 whole entry): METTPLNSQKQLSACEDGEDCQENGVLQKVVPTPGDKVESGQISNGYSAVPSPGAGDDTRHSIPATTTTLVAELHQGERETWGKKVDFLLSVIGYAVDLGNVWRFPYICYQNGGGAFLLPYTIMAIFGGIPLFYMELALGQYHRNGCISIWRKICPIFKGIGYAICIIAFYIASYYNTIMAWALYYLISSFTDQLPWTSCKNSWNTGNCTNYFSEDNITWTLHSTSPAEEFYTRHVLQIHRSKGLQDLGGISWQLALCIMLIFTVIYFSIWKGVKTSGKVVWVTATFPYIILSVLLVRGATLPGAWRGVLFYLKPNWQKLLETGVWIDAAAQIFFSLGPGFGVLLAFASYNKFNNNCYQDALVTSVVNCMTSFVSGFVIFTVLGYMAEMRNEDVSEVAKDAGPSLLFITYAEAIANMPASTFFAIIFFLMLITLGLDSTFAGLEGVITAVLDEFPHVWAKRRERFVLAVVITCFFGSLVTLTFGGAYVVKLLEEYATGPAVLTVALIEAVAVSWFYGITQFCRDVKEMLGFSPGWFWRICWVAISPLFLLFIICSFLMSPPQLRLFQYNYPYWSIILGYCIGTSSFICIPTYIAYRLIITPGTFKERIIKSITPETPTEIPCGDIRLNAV
Experimental: as §1, §2, §3

[4] = molecular target: T4, recombinant human dopamine transporter (hDAT) (Homo sapiens, UniProt Q01959); assay: [125I]RTI-55 binding, HEK-hDAT; details: used in Cheng-Prusoff equation
T4 construct: expressed in transfected cells; host or cells: HEK cells
T4 sequence (Q01959 whole entry): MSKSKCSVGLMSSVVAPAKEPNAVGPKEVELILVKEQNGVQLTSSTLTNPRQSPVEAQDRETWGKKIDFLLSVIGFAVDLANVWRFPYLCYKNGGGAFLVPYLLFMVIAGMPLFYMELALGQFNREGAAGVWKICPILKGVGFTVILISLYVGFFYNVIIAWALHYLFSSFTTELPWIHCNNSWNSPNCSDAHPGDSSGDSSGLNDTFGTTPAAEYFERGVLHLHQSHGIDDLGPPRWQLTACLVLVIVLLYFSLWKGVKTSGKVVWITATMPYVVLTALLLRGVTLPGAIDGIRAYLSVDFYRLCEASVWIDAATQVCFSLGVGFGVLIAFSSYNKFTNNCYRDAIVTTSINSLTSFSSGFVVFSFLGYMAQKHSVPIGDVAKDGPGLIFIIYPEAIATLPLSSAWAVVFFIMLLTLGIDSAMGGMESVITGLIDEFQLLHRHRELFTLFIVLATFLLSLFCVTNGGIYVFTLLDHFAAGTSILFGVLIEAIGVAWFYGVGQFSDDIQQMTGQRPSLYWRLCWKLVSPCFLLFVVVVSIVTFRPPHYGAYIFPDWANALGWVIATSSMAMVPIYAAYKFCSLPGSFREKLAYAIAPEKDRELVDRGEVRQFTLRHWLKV
Experimental: as §1, §2, §3

human 5HT2C receptor = molecular target: T5, human 5HT2C receptor (Homo sapiens, UniProt P28335); assay: h5HT2C receptors: [125I]DOI binding; details: read-out: Kd for [^125I] DOI at 5HT2C receptors; used in Cheng-Prusoff equation
T5 construct: expressed in transfected cells; host or cells: HEK cells
T5 sequence (P28335 33-458): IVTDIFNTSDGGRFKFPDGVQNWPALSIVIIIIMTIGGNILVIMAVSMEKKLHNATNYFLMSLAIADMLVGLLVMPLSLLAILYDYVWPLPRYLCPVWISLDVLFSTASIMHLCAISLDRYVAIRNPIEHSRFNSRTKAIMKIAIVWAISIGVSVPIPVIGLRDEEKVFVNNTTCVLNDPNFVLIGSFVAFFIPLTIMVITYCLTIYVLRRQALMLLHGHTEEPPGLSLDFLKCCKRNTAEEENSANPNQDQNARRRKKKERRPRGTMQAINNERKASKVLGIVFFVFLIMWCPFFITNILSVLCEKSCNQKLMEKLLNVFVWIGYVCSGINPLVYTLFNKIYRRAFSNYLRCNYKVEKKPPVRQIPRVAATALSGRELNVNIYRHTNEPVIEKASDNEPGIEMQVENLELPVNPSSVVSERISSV
Experimental: The method was adapted from AR Knight et al, Naunyn-Schmeideberg's Arch Pharmacol 370, 114-123 (2004).
Method: Human embryonic kidney cells expressing the human 5HT2A receptor (HEK-h5HT2A) or human 5HT2C receptor (HEK-h5HT2C) were used. The cells were grown until confluent on 15 cm plates. Media was removed, cells were washed with phosphate-buffered saline (PBS), scraped into 2 ml PBS and frozen at −20° C. until needed. Cell suspension was thawed, 10 ml assay buffer (50 mM Tris, pH 7.4 at 37° C., with 0.1% ascorbic acid and 5 mM CaCl2) was added per plate of cells, and polytronned at setting 6 for 5 sec. The homogenate was centrifuged at 15,500 rpm for 20 min. To minimize the residual 5HT concentration, the pellet was resuspended in buffer, polytronned, and centrifuged as above. The final pellet was resuspended in 2 ml buffer/plate of cells.
The binding assay included 50 μl drug, 5HT or buffer, 50 μl cell homogenate, 50 μl [^125I]DOI (˜0.1 nM) and buffer in a final volume of 250 μl. Specific binding was defined as the difference between total binding and binding in the presence of 10 μM 5HT. The reaction was incubated for 1 hour at 37° C., and terminated by filtration through Wallac A filtermats presoaked in 0.05% polyethylenimine using a Tomtec 96-well harvester. Radioactivity remaining on filters was counted in a Wallac betaplate reader. IC50 values were calculated using GraphPad Prism. […]

DAT = DAT (Homo sapiens, UniProt Q01959); details: transfected cells; Miller et al 2004; cited from earlier work
Chain of DAT (Q01959 whole entry, species assumed): as the sequence (Q01959 whole entry) above

VMAT2 [5] = molecular target: T1, VMAT2; details: transfected cells; Miller et al 2004; cited from earlier work
[6] = rats, lever press; Harrod et al 2001; cited from earlier work
[7] = base; cited from earlier work
VMAT2 [8] = molecular target: T1, VMAT2; details: high concentrations; cited from earlier work

T1 sequence (Q05940 whole entry, species assumed): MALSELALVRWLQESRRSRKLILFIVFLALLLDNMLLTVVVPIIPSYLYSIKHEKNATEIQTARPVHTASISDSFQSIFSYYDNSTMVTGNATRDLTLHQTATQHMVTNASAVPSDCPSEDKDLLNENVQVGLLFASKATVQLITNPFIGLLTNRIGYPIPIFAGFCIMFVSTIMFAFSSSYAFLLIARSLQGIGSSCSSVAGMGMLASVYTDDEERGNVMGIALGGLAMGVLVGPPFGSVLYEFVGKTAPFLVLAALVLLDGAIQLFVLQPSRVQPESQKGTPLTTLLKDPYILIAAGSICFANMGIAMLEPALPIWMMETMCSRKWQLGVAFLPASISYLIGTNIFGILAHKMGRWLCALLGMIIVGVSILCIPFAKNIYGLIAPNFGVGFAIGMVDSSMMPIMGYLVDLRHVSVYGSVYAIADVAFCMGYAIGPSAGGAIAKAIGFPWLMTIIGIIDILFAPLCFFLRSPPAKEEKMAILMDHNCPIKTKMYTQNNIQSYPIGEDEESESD

O=C(c1ccc(F)cc1)C1CCN(CCn2c(=O)[nH]c3ccccc3c2=O)CC1 [Ketanserin]
affinity for VMAT2 (in words) (VMAT2 [1]): high affinity

COC(=O)[C@H]1[C@@H](c2ccc(I)cc2)C[C@@H]2CC[C@H]1N2C [[^125I]RTI-55]
Kd [2]: 12.1 nM
Kd [3]: 0.98 nM
Kd [4]: 1.2 nM

COc1cc(CC(C)N)c(OC)cc1I (stereo not shown) [[^125I] DOI]
Kd (human 5HT2C receptor): 4.18 nM

CN1[C@@H](CC(=O)c2ccccc2)CCC[C@H]1C[C@H](O)c1ccccc1 [lobeline, 2-((2R,6S)-6-((S)-2-Hydroxy-2-phenylethyl)-1-methylpiperidin-2-yl)-1-phenylethanone]
affinity at the DAT (DAT): 5.4 µM
affinity at VMAT2 (VMAT2 [5]): 4.3 µM
responding for intravenous MA or sucrose after pretreatment [6]: decreased responding to both acutely

CN[C@@H](C)Cc1ccccc1 [MA, Methamphetamine]
pKa [7]: 9.8
concentration for inhibition of [^3H]DTBZ binding (VMAT2 [8]): 1.2 mM
